From article PMC3015019 (Biological psychiatry, 2010)
Structures can show the parent of a compound that is named as a salt.

Columns and labels:
[1] = system: DA levels in dialysates from the NAc shell; experiment: In-vivo microdialysis of extracellular DA in the NAc shell of freely moving rats; details: rat; for time for DA levels to return to basal levels after injection: cocaine: highest dose
σ2 receptor = molecular target: T1, σ2 receptor (Cavia porcellus, UniProt H0V073); experiment: Sigma 2 receptor binding, [3H]DTG displacement in presence of; parameters: species or system guinea pig; details: ratio of σ2 to σ1 affinity values
T1 sequence (H0V073 1-176): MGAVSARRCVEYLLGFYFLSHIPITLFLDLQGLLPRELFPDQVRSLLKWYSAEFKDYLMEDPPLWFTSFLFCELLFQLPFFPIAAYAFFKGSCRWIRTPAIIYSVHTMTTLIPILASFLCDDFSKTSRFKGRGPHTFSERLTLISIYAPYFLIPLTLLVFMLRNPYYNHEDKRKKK

σ1 receptor = σ1 receptor (Cavia porcellus, UniProt Q60492); experiment: Sigma 1 receptor binding, [3H]; parameters: species or system guinea pig
Chain of σ1 receptor (Q60492 whole entry): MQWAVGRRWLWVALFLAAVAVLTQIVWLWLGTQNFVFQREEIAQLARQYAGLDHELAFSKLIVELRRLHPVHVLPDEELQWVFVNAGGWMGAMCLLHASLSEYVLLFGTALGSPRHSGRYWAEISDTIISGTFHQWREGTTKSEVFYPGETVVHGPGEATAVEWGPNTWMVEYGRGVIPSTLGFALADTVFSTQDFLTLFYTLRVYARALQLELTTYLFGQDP

[2] = 10–30 mg/kg i.p., administered alone

Structure (SMILES): CN(CCc1ccc(Cl)c(Cl)c1)CCN1CCCC1 [BD 1008]
- DA levels at 2 hr after injection, antagonist alone ([1]; 10 mg/kg i.p., administered alone): ~75 % of basal control values

Structure (SMILES): CN(C)CCN(C)CCc1ccc(Cl)c(Cl)c1 [BD 1047]
- σ2/σ1 (σ2 receptor): 15.2

Structure (SMILES): CN1CCN(CCc2ccc(Cl)c(Cl)c2)CC1 [BD 1063]
- σ2/σ1 (σ2 receptor): 70.9
- later decrease in DA levels, antagonist alone [1, 2]: about 80 % of baseline
- transient (<30 min) non-significant increase in DA levels, antagonist alone [1, 2]: about 30%

Structure (SMILES): COC(=O)[C@H]1[C@@H](OC(=O)c2ccccc2)C[C@@H]2CC[C@H]1N2C [Cocaine, (−)-cocaine hydrochloride]
- Ki (σ1 receptor): 5.19 µM
- time for DA levels to return to basal levels after injection ([1]; i.v.): ≤ 50 min

Structure (SMILES): Cc1ccccc1N=C(N)Nc1ccccc1C [DTG]
- time of maximal effect on DA levels ([1]; 3.2 mg/kg i.v.): 20 min
- time of maximal effect on DA levels ([1]; 5.6 mg/kg i.v.): ≤ 10 min
- acute toxicity ([1]; i.v., doses higher than 5.6 mg/kg): signs of acute toxicity
- time for DA levels to return to basal levels after injection ([1]; i.v.): ≤ 45 min

Structure (SMILES): CC(=O)c1ccc2c(c1)oc(=O)n2CCCCN1CCN(c2ccc(F)cc2)CC1 [SN79]
- effect on extracellular levels of DA, antagonist alone ([1]; 1–3 mg/kg i.p., up to 100 min after administration): did not significantly modify
